A short description of this data set: Solubility (maximum soluble amount) in acetonitrile solution including 0.1 M TBAPF6. Type of data set: physicochemical. The following applies: for solubility: acetonitrile solution including 0.1 M TBAPF6, organic solvent or mixture, maximum soluble amount in acetonitrile solution including TBAPF6 at 0.1 M. On the procedure:
Each of the phenazine-based compounds provided according to Example 1 and Comparative Example 1 was dissolved in an acetonitrile solution including TBAPF6 at a concentration of 0.1 M, and the maximum soluble amounts of the phenazine-based compounds were identified, and the results are shown in the following Table 1.

Molecules are shown by their SMILES. Values after ≈ are worked out from the molar mass of the structure shown.

One may read the solubility as how much of the substance goes into solution per volume. `CN1c2ccccc2N(C)c2ccccc21` [Comparative Example 1, 5,10-dimethyl-5,10-dihydrophenazine, reference compound]: the solubility was determined as 50 mM (≈ 10.5 mg/mL).
Consider `COCCN1c2ccccc2N(CCOC)c2ccccc21` [Example 1, 5,10-bis(2-methoxyethyl)-5,10-dihydrophenazine], for which the solubility amounted to 500 mM (≈ 149 mg/mL). For the same molecule, the “fold higher solubility in a non-aqueous solvent than DMPZ” value (non-aqueous solvent, relative to DMPZ) was “at least 10 fold”.

(Values after US20220048869A1, “PHENAZINE-BASED COMPOUND, ELECTROLYTIC LIQUID COMPRISING SAME FOR REDOX FLOW BATTERY, AND REDOX FLOW BATTERY” (LOTTE CHEMICAL CORPORATION, priority 2018, published 2022).)
